Results on 1 compound are retold here after patent publication US20200352912A1, “ANTIMICROBIAL COMPOSITIONS AND METHODS OF USING THE SAME” (The Board Of Supervisors Of Louisiana State University And …, priority 2018, published 2020).

Entries after “also recorded” stand apart in the source; their conditions may differ.

One series addresses EP1 (Homo sapiens, UniProt P34995). Conditions: cited from earlier work.
The conditions of series [1]: 10 mg/kg body weight; cited from earlier work.
Series [2] has as its system S. aureus. In words: generation of hydroxyl radicals (thiourea scavenger). Format: cell-based, Staphylococcus aureus. The note with it: 50 μg/ml, 150 mM thiourea. The protocol:
(A) Effects of reactive oxygen species inhibitors. Growth of S. aureus was monitored for up to 6 h in medium alone or medium supplemented with 15 mM of Na-L-ascorbate, and/or 15 mM N-acetyl-L-cysteine, and/or 50 μg/ml L-161, 982. Data shown are representative of two independent experiments. (B) Effects of hydroxyl radical scavengers. Growth was monitored for 4 h in medium alone or medium supplemented with 50 μg/ml L-161, 982 or 1 mM H2O2 alone, plus 150 mM thiourea, or plus 500 μM 2,2′-dipyridyl.
Generation of hydroxyl radicals. Antibiotic induced hydroxyl radical production was measured as previously described (12). Overnight cultures of S. aureus were diluted 1:100 in TSB and grown for 3 h at 37° C. with shaking to mid-log phase. Cultures were diluted in TSB to OD600=0.05 and L-161, 982 was added at a final concentration of 50 µg/ml+/−H2O2 (1 mM; Sigma) or thiourea (150 mM; Sigma). Cultures were incubated at 37° C. with shaking and aliquots were removed at t(0) and at 1 h intervals duplicate, diluted 1:100 and optical density measured at 600 nm (OD600) or serially diluted and plated onto SDA and grown at 37° C. for 24 h for CFU enumeration.

The subject of series [3] is S. aureus. In words: colony phenotype on agar plates. Format: cell-based, Staphylococcus aureus. The source says: L-161, 982 inhibits activities associated with the electron transport chain including ATP production. In addition to the sulfonamide group, the chemical structure of L 161, 982 contains a urea group connected to two aryl groups (diarylurea) (FIG. 11). Urea derivatives are commonly used as herbicides, interfering with electron transport (17). […] SCVs typically lack a functional electron transport chain and cannot produce virulence factors such as hemolysins or the antioxidant pigment staphyloxanthin [reviewed in (19)]. […] These defects are all indicative of interruption of electron transport as carotenoid formation as well as toxin production is dependent on an active electron transport (18, 20, 21). During aerobic respiration, the force required for driving ATP synthesis requires a transmembrane electrical potential (membrane potential), which is generated by the electron transport chain.

Another series relates to S. aureus strain NRS383. Put plainly: effect of exogenous thymidine on antibacterial activity. Format: cell-based, Staphylococcus aureus. Conditions: 50 μg/ml, 200 μg/ml thymidine. The protocol:
S. aureus strain NRS383 was grown in cation-adjusted Mueller-Hinton II broth alone (control), with 50 μg/ml of L-161, 982 or with 40 μg/ml of SXT (positive control)±200 μg/ml of thymidine. Cultures were incubated at 37° C. non-shaking and aliquots were removed at various time points and cultured for growth (CFU). Results are expressed as % of control at each time point. Mean values from two independent experiments are shown.
Effect of exogenous thymidine on antibacterial activity of L-161, 982. S. aureus was cultured to mid-log phase in cation-adjusted Mueller-Hinton II broth with shaking at 37° C. Cultures were further diluted to yield a final concentration of 5×10^5 cells/ml. and treated with drugs alone or in combination with 200 μg/ml of thymidine (Sigma). Drugs were L-161, 982 (50 μg/ml) or 40 μg/ml of trimethoprim-sulfamethoxazole (SXT) at a ratio of 1:19 (2 μg/ml of trimethoprim and 38 μg/ml of sulfamethoxazole; Sigma) as a positive control. Cultures were incubated at 37° C. without shaking and aliquots were removed at t(0), 2, 4, 6, and 24 hours. CFUs were enumerated by plating various dilutions on TSA plates and incubating at 37° C. for 24 hours. Results were normalized to negative control cultures containing no drug at each time point.

In series [4] the test system is S. aureus. In words: ATP detection assay (BacTiter-Glo). Format: cell-based, Staphylococcus aureus. Conditions: 12.5-200 μg/ml, 5 h. The protocol: S. aureus was incubated with various concentrations of L-161,982 in a 96-well plate in triplicate for 5 h at 37° C. ATP production was measured in samples normalized to viable cell number using the BacTiter-Glo™ Assay (Promega) and measuring luminescence. Background luminescence from media alone samples was subtracted from experimental samples. Results represent the means+/−standard deviation. Data shown are representative of two independent experiments. ** p<0.01; *** p<0.001 control vs drug-treated.
ATP detection assay. S. aureus was diluted 100-fold in 10 ml of fresh Mueller Hinton II broth which was used as the inoculum. The inoculum was incubated with various concentrations of L-161,982 (12.5-200 μg/ml) in a 96-well plate in triplicate for 5 h at 37° C. After incubation, cells L-161,982 were stained with LIVE/DEAD Baclight bacterial viability stain (Invitrogen) and viable cells were counted. Samples were normalized to viable cell number before transferring to an opaque-walled 96-well plate. An equal volume of BacTiter-Glo™ Reagent (Promega) was added. The plate was allowed to develop for 5 min at room temperature. Luminescence was quantified using a BioTek Synergy 2 plate reader. A media alone control was used to detect background luminescence.

Sequence of EP1 (P34995 whole entry): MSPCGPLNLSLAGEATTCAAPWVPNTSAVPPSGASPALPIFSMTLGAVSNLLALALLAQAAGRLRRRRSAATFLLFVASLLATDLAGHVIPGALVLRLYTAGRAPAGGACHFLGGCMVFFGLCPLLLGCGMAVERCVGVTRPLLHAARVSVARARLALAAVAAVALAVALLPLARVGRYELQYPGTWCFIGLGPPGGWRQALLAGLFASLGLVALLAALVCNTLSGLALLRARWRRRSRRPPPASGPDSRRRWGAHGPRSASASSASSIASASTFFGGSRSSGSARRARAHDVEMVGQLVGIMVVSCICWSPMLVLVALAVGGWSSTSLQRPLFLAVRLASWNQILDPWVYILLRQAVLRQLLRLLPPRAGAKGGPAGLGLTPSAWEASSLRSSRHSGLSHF

Broadly, the Ki is the dissociation constant of the complex between target and ligand, obtained from inhibition or displacement. Consider `CCCCc1nn(-c2ccccc2C(F)(F)F)c(=O)n1Cc1ccc(-c2ccccc2S(=O)(=O)NC(=O)c2sccc2C)cc1` [L-161, 982, N-[[4′-[[3-Butyl-1,5-dihydro-5-oxo-1-[2-(trifluoromethyl)phenyl]-4H-1,2,4-triazol-4-yl]methyl][1,1′-biphenyl]-2-yl]sulfonyl]-3-methyl-2-thiophenecarboxamide], for which the Ki at EP1 was 17 µM. The toxic effects entry in series [1] is reported as “no apparent toxic effects”. For the same compound, the “effect of thiourea on growth inhibition” value with S. aureus [2] is on record as “did not alleviate”. Besides, the colony phenotype entry with S. aureus [3] is given as “grew as small colonies”. In addition, in the series with S. aureus strain NRS383, the “effect of exogenous thymidine on growth inhibition” value is given as “did not reverse; also recorded: no effect”. Besides, in the series with S. aureus [4], the ATP production result is on record as “significantly inhibited ATP production”.
